Results published in patent US20070014788A1, “Laminin-5 modulators and uses thereof” (Novo Nordisk A/S, priority 2004, published 2007).

B1: TRAIL: TNF-related apoptosis-inducing ligand (protein, UniProt P50591 1-281, looked up)
Tumor necrosis factor ligand …: MAMMEVQGGPSLGQTCVLIVIFTVLLQSLCVAVTYVYFTNELKQMQDKYSKSGIACFLKEDDSYWDPNDEESMNSPCWQVKWQLRQLVRKMILRTSEETISTVQEKQQNISPLVRERGPQRVAAHITGTRGRSNTLSSPNSKNEKALGRKINSWESSRSGHSFLSNLHLRNGELVIHEKGFYYIYSQTYFRFQEEIKENTKNDKQMVQYIYKYTSYPDPILLMKSARNSCWSKDAEYGLYSIYQGGIFELKENDRIFVSVTNEHLIDMDHEASFFGAFLVG

The molecules below were run on SW480 cells (assay: Cell death (LDH release) of transfected SW480 cells, alone and with anti-cancer compounds). Settings: low dose of compound, 24 hours.
Assay type: cell-based
Experimental: SW480 cells obtained from ATCC were grown in DME:F12 supplemented with 10% foetal calf serum and routinely checked for being mycoplasma free. For transfection, the cells were seeded as 3×10^5 cells/2 ml in 6 well plates. Transfection was carried out after cells have attached at least overnight using Lipofectamin 2000 (Life Technologies). Liposomes were formed in medium without serum by mixing 10 μl lipofectamine 2000 and 3 μg plasmid DNA or 15 μl 20 pmol/μl oligonucleotide in a total volume of 250 μl. After liposome formation, the mixture was added to cells and incubated 5 hours in cell incubator before medium was changed to complete medium with serum. After 24 hours, cells were trypsinised and moved to 96 well plates to analyse for death induction.
The cells were allowed to plate for 24 hours before dosing with the indicated compounds, all in triplicate. The compounds were solubilised in DMSO and added to cells in medium with no more than 0.1% v/v DMSO. Triplicate cell cultures for basal cell death (untreated) and maximal response (complete lysis) were included as well as triplicate media samples for background determination. Cells were incubated for additional 24 hours. The maximal response (100% cell death) was induced by adding 1% v/v Triton X100 to triplicate cell cultures 5 min before medium was collected for detection of lactate dehydrogenase (LDH) activity. Medium from all samples were used in the detection of LDH using a kit from Takara Bio Inc.

| Molecule | effect of added compound on the increased cell death by siRNA against gamma2 |
| --- | --- |
| C/C=C(/C)C(=O)O[C@H]1C(C)=C2[C@H]([C@@H]1OC(=O)CCCCCCC)[C@@](C)(OC(C)=O)C[C@H](OC(=O)CCC)[C@@]1(O)[C@H]2OC(=O)[C@@]1(C)O [thapsigargin] | did not attenuate |
| tunicamycin | did not attenuate |
| CN[C@@H]1C[C@H]2O[C@@](C)([C@@H]1OC)n1c3ccccc3c3c4c(c5c6ccccc6n2c5c31)C(=O)NC4 [staurosporine] | did not attenuate |
| B1 | did not attenuate |
